Several values for one entry are separate records, joined by “and”; a condition that tells them apart may be missing. Equal values may be shown once. Read-outs that look alike come from different tables or passages of the source.
Columns and labels:
[1] = test system: hSERT variants Thr4Ala, Gly56Ala, Glu215Lys, Lys605Asn, Pro621Ser; assay: 5-HT transport regulation in transfected HeLa cells, non-responsive variants; format: cell-based, human
Protocol: (§1) Transfection and Transport Studies. HeLa cells, maintained at 37° C. in a 5% CO2 humidified incubator, were grown in complete medium (Dulbecco's Modified Eagle's Medium (DMEM, Invitrogen), 10% fetal bovine serum, 2 mM L-glutamine, 100 units/ml penicillin, and 100 μg/ml streptomycin).
(§2) Transport, Binding, Biotinylation and Phosphorylation Studies. […] To establish levels and biosynthetic progression of hSERT protein produced from mutant cDNAs, HeLa cells were plated in 6-well dishes at 500,000 cells per well and transfected 12 h later. Twenty four hours after transfection, whole cell detergent extracts were blotted for hSERT (mAb Technologies, Inc., 1:1000) using enhanced chemiluminescence (ECL, Amersham) detection.

[2] = test system: Ala56 homozygous lymphocyte lines; assay: 5-HT uptake in genotyped lymphocyte lines; format: cell-based, human
Text: (§3) Genotyping and Lymphocyte Studies. Lymphocyte lines were derived from autistic pedigrees recruited by Susan E. Folstein (Johns Hopkins Univ), from the Autism Genetics Resource Exchange (AGRE) collection (www.agre.org/), and from the NIMH Human Genetics Initiative Repository (www.nimhgenetics.org/) at Rutgers University. DNA from lymphoblastoid cell lines was genotyped via TaqMan-based allelic discrimination, using an Applied Biosystems (Foster City, Calif.) Assay-by-Design and independently confirmed by PCR and direct sequence analysis. […] Lymphocyte were pelleted at 1500 rpm, 5 min and washed with KRH assay buffer. A total of 1×10^6 cells in triplicate were pre-warmed (37° C.) in a shaking water bath (10 min) in 12×75 polypropylene tubes in KRH buffer containing 100 μM pargyline and 100 μM ascorbic acid+/−modifiers.

[3] = test system: Gly56Ala heterozygous lymphocytes; assay: 5-HT uptake in genotyped lymphocyte lines; format: cell-based, human; settings: Gly56Ala heterozygous cells
Text: as §3

[4] = test system: lymphocytes homozygous for the Gly variant (hSERT Gly56); assay: 5-HT uptake in genotyped lymphocyte lines; format: cell-based, human
Text: as §3

[5] = test system: hSERT variants Leu255Met, Ser293Phe, Pro339Leu, Leu362Met, Ile425Val; assay: 5-HT transport regulation in transfected HeLa cells, responsive variants; format: cell-based, human
Protocol: as §1, §2

hSERT Gly56Ala = assay: in situ SERT phosphorylation in [32P]-prelabeled transfected HeLa cells; format: cell-based, human
hSERT [6] = molecular target: T1, hSERT (Homo sapiens, UniProt P31645); assay: [125I]RTI-55 binding to intact transfected HeLa cells (surface and total SERT); format: cell-based; settings: for total [125I]RTI-55 binding: paroxetine as displacer, data not shown
T1 construct: The full-length cDNA encoding hSERT in the mammalian expression vector pcDNA3.1; expressed in transfected cells; host or cells: HeLa

[7] = test system: hSERT variants that responded with uptake increases; assay: [125I]RTI-55 surface binding to intact transfected HeLa cells, responsive variants; format: cell-based, human
hSERT [8] = assay: in situ SERT phosphorylation in [32P]-prelabeled transfected HeLa cells; format: cell-based, human; settings: 8BrcGMP 100 μM, 60 min
[9] = molecular target: T2, native SERT in RN46A cells (Rattus norvegicus, UniProt P31652); assay: [3H]5-HT transport assay in RN46A cells; format: cell-based; settings: RN46A; for blockade of anisomycin-stimulated 5-HT uptake: SB203580, ODQ 10 μm, H8 0.1 μm, DT-2 1.0 μm
T2 construct: derived from rat E13 raphenucleus, that expresses native SERT; endogenous in cells; host or cells: RN46A cells

[10] = test system: five hSERT variants that failed to elicit uptake increases; assay: [125I]RTI-55 surface binding to intact transfected HeLa cells, non-responsive variants; format: cell-based, human
hSERT [11] = molecular target: T1, hSERT; assay: [3H]5-HT transport (SERT uptake) assay in transfected HeLa cells; format: cell-based
Protocol: as §1, §2

[12] = test system: rat SERT expressed by RBL-2H3 cells; assay: [3H]5-HT transport assay in RBL-2H3 cells; format: cell-based; settings: for blockade of NECA-induced 5-HT uptake: ODQ 10 μm, NECA 1 μm
[13] = test system: rat SERT expressed by RBL-2H3 cells; settings: Zhu et al., 2004a,b; cited from earlier work
human NET = assay: monoamine uptake assay in transfected CHO cells; format: cell-based
Protocol: Cell Culture and Transfection. […] CHO cells (ATCC, Manassas, Va.) were maintained at 37° C. in Dulbecco's MEM containing 10% fetal bovine serum, 1% L-Glu, 100 IU/ml penicillin, and 100 μg/ml streptomycin. For comparison of the response of monoamine transporters to p38 MAPK activation, CHO cells were transfected with cDNAs for hSERT, hDAT, or hNET (100 ng/well for a 24-well plate). Transfections of CHO cells were performed using TransIT-LT1 Transfection Reagent (Mirus, Madison, Wis.) according to the manufacturer's protocol (0.3 μl/well). hSERT, hDAT, or hNET cDNAs were preincubated with the reagent at ambient temperature for 30 min before being added to plated CHO cells. Cells were cultured for 24 h after transfection. The transfection mixture was removed just prior to assay.
CHO cells were plated at 20,000 cells/well 16-24 h before transfection, and the uptake assay was performed 24 h following the transfection. […] Medium was removed by aspiration, and cells were washed once with Krebs-Ringer HEPES (KRH) buffer containing 130 mM NaCl, 1.3 mM KCl, 2.2 mM CaCl2, 1.2 mM MgSO4, 1.2 mM KH2PO4, 1.8 g/liter glucose, 10 mM HEPES, pH 7.4. […] Cells were solubilized with 0.5 ml of Microscint 20 (PerkinElmer Life Sciences), and tritium-labeled monoamine accumulation was quantitated using a TopCount plate scintillation counter (PerkinElmer Life Sciences).

mSERT = assay: monoamine uptake assay in transfected CHO cells; format: cell-based, mouse; settings: 10-min anisomycin
Protocol: (§4) Cell Culture and Transfection. […] Cells were cultured for 24 h after transfection. The transfection mixture was removed just prior to assay.

p38 MAPK = format: cell-based, rat
Protocol: Assays of p38 MAPK Activation. […] Medium was removed by aspiration, and cells were washed once with KRH buffer and then incubated in triplicate at 37° C. in KRH buffer with or without p38 MAPK activators for 5-10 min. Assay buffer was removed, and cells were immediately fixed with fresh 4% formaldehyde (Sigma) in PBS for 20 min at room temperature and washed four times with 1×PBS containing 0.1% Triton X-100 (Sigma) (5 min per wash) prior to 1 h of blocking with Odyssey blocking buffer (Li-Cor Biosciences, Lincoln, Nebr.). RBL-2H3 cells were subsequently probed with dual phosphorylated (Thr(P) and Tyr(P)) p38 MAPK polyclonal antibody (Cell Signaling; 1:400) in Odyssey blocking buffer with gentle mixing for 2 h at room temperature. Cells were then washed four times with 1×PBS containing 0.1% Tween 20 (Sigma) for 5 min. Bound antibody was detected with fluorescence-labeled secondary antibody-Alexa Fluor® 680 (avoiding exposure to light; 1:200 in Odyssey Blocking Buffer, Molecular Probes, Inc., Eugene, Oreg.) for 1 h. After four washes with 1×PBS, 0.1% Tween 20, the plate was scanned, and the captured image of the signal was processed and quantified with the Odyssey™ Infrared Imaging System (Li-Cor Biosciences). For UV radiation to activate p38 MAPK, plates seeded with cells were placed in a UV source (UV Stratalinker 1800, Stratagene, La Jolla, Calif.) that was preset to deliver 4×10^4 μJ/cm^2 at room temperature.

hDAT = assay: monoamine uptake assay in transfected CHO cells; format: cell-based, human; settings: 10-min anisomycin
Protocol: as §4

hSERT variants = assay: 5-HT transport regulation by phorbol ester in transfected HeLa cells, all variants; format: cell-based, human; settings: each hSERT variant; slightly greater for Thr4Ala, Lys605Asn, Pro621Ser
Protocol: as §1, §2

NCCc1c[nH]c2ccc(O)cc12 = test system: T3, NCCc1c[nH]c2ccc(O)cc12; assay: cells, lysate or membranes; format: cell-based, human; settings: other: saturation kinetics of 5-HT transport, hSERT; pH 7.4; 37.0 °C
T3 construct: The full-length cDNA encoding hSERT in the mammalian expression vector pcDNA3.1; expressed in transfected cells; host or cells: HeLa

[14] = pretreatment, then anisomycin 1 μm 10 min, SB compounds, curcumin, PD98059, ODQ 10 μm, H8 0.1 μm, DT-2 1.0 μm, fostriecin 5 nM, MTSET 10 mM, siRNA 100 nM 48 h

T2 sequence (P31652 whole entry): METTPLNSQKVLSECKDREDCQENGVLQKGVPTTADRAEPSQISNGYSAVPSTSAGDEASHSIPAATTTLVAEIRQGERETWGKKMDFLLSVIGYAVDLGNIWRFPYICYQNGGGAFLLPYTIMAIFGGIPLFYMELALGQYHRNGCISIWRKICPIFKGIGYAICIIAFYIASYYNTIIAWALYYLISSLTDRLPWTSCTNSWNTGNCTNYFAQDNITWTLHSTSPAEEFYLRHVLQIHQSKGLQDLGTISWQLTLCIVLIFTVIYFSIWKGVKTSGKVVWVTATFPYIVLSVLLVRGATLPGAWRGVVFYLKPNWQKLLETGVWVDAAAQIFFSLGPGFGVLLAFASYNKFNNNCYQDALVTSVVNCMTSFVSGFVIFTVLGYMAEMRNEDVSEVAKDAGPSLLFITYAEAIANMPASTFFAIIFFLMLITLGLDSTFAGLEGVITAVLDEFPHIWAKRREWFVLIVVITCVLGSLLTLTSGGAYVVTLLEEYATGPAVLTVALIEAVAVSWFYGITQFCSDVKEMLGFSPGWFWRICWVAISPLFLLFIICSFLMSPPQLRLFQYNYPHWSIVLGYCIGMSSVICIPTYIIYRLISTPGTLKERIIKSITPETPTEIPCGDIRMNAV
T1 sequence (P31645 whole entry): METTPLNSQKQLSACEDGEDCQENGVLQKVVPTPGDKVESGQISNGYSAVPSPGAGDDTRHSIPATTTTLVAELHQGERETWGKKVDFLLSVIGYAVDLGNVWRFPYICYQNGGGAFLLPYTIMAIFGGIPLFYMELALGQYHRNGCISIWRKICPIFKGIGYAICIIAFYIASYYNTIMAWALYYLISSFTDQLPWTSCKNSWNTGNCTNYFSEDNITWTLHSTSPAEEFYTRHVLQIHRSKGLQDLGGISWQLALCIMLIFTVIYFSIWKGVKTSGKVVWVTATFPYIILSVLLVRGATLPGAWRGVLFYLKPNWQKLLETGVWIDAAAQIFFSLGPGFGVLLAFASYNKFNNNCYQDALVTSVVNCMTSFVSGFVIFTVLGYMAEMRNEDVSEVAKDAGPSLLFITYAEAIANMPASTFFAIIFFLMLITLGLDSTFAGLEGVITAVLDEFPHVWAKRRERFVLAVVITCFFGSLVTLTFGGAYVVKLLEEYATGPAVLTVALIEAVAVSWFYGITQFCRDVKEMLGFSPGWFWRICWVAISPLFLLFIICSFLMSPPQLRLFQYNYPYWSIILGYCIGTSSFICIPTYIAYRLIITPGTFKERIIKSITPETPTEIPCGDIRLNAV

## Nc1nc2c(nc(Br)n2[C@@H]2O[C@@H]3COP(=O)(O)O[C@H]3[C@H]2O)c(=O)[nH]1 [8BrcGMP, 8-bromo-cGMP]
[1]
  8BrcGMP effect on SERT activity: completely insensitive
[2]
  sensitivity of 5-HT uptake to activator: lacked sensitivity
[3]
  sensitivity of 5-HT uptake to activator: intermediate sensitivity
[4]; Gly56 homozygous lymphocytes
  stimulation of 5-HT transport: robust 8BrcGMP stimulation of 5-HT transport
[5]
  8BrcGMP effect on SERT activity: dose-dependent, H8-sensitive stimulation of SERT activity comparable to hSERT
hSERT Gly56Ala
  SERT phosphorylation response to 8BrcGMP: could not be further phosphorylated
hSERT [6]; 100 μM 8BrcGMP, 5-HT 100 μM as displacer
  [125I]RTI-55 surface binding after 8BrcGMP: Parallel changes in [^125I]RTI-55 surface binding
hSERT [6]
  total [125I]RTI-55 binding: no effects on total binding
[7]
  [125I]RTI-55 surface binding after 8BrcGMP: elevated [^125I]RTI-55 surface binding
hSERT [8]
  elevation of basal SERT phosphorylation: ~80%
[9]; 10 min treatment
  stimulation of 5-HT transport: increase in 5-HT transport
[10]; five non-responsive variants
  [125I]RTI-55 surface binding after 8BrcGMP: reduction in [^125I]RTI-55 surface binding
hSERT [11]
  stimulation of 5-HT transport activity (peak increase): 50-70%

## CNCCNS(=O)(=O)c1cccc2cnccc12 [H8, N-[2-(methylamino)ethy]-5-isoquinoline sulfonamide]
[4]; H8 versus 8BrcGMP, SB203580 versus anisomycin
  antagonist sensitivity of stimulated 5-HT transport: sensitive to H8
hSERT [6]
  total [125I]RTI-55 binding: no effects on total binding
[12]; H8 0.1 μm, DT-2 1.0 μm
  blockade of NECA-induced 5-HT uptake: abolish
[12]; data not shown
  blockade of 8-Br-cGMP stimulation of SERT: blocked
[12]; [14]
  blockade of anisomycin-stimulated 5-HT uptake / SERT activity: failed to attenuate
[9]
  blockade of anisomycin-stimulated 5-HT uptake: failed to attenuate
[10]; H8
  blockade of 8BrcGMP-induced reduction in surface density: completely blocked
hSERT [11]
  antagonism of 8BrcGMP stimulation of 5-HT transport: completely antagonized

## O=C1C(Nc2ccccc2)=CC(=O)c2ncccc21 [LY83583]
[12]; [14]
  blockade of anisomycin-stimulated 5-HT uptake / SERT activity: neither agent attenuated anisomycin stimulation
[9]
  blockade of anisomycin-stimulated 5-HT uptake: neither agent attenuated anisomycin stimulation
[13]
  blockade of AR stimulation of SERT: completely abolished

## O=c1onc2cnc3ccccc3n12 [ODQ, 1H-(1,2,4)-oxadiazolo[4,3-a]quinoxalin-1-one]
[12]
  blockade of anisomycin-stimulated 5-HT uptake / SERT activity: neither agent attenuated anisomycin stimulation
[12]; H8 0.1 μm, DT-2 1.0 μm
  blockade of NECA-induced 5-HT uptake: abolish
[9]
  blockade of anisomycin-stimulated 5-HT uptake: neither agent attenuated anisomycin stimulation
[13]
  blockade of AR stimulation of SERT: completely abolished

## C[S+]([O-])c1ccc(-c2nc(-c3ccc(F)cc3)c(-c3ccncc3)[nH]2)cc1 (centres unmarked) [SB203580]
Human NET; SB203580 preincubation 15 min
  blockade of anisomycin stimulation of NET: blocking stimulation back to basal levels

## COc1ccc(C[C@H]2NC[C@H](O)[C@H]2OC(C)=O)cc1 [anisomycin]
mSERT
  anisomycin-modulated 5-HT uptake: SB203580-sensitive elevation in 5-HT uptake
Human NET; CHO cells, 10-min anisomycin
  anisomycin-modulated NE uptake (NET activity): stimulated to a comparable degree as hSERT
p38 MAPK; 0.5 and 1.0 μm, 5 min
  increase in phosphorylated p38 MAPK: 2-3 fold
p38 MAPK; 5 min treatment
  level of p38 MAPK phosphorylation stimulation: comparable to stimulation achieved with 8-bromo-cGMP
p38 MAPK; data not shown
  total p38 MAPK levels: No changes
hDAT
  anisomycin-modulated DA uptake: small, but significant SB203580-sensitive inhibition of DA uptake

## CCCCCCCCCCCCCC(=O)O[C@@H]1[C@@H](C)[C@@]2(O)[C@@H](C=C(CO)C[C@]3(O)C(=O)C(C)=C[C@@H]23)[C@@H]2C(C)(C)[C@]12OC(C)=O [β-PMA]
hSERT variants
  downregulation of 5-HT transport following β-PMA, relative to hSERT: equal to or slightly greater
hSERT [11]
  downregulation of 5-HT transport activity: ~40%

## hSERT (Homo sapiens)
NCCc1c[nH]c2ccc(O)cc12
  Km: 1.00+/−0.47 μM and 1.00+0.17 μM
